# Laboratory results reported in patent US7588892B2, “Reagent sets and gene signatures for renal tubule injury” (Entelos, Inc., priority 2004, dated 2009).
# Read-outs that look alike come from different tables or passages of the source.
# Experiments:
# [1] = system: renal tubules; test: 28-day repeat dose study of known nephrotoxicants, kidney histopathology on day 5 and day 28; format: in vivo, rat; settings: for evidence of tubular injury / incidence of interstitial inflammation / proteinaceous casts, tubular cysts and mineralization, animals affected: day 28, kidney histopathology; for incidence of interstitial inflammation / proteinaceous casts, tubular cysts and mineralization, animals affected: n=10
# Method: 28-day repeat dose studies were conducted on known nephrotoxicants. Doses were chosen that would not cause histological or clinical evidence of renal tubular injury after 5 days of dosing, but would cause histological evidence of tubular injury after 28 days of dosing. Animals were assigned to groups such that mean body weights were within 10% of the mean vehicle control group. Test compounds were administered either orally (10 ml of corn oil/kg body weight) or by intra-peritoneal injection (5 ml of saline/kg body weight). Animals were dosed once daily starting on day 0, and necropsied 24 hrs after the last dose following an overnight fast on day 5 (n=5) and day 28 (n=10). An equivalent number of time- and vehicle-matched control rats were treated concurrently.
# To derive a signature predictive of renal tubular injury, it is necessary to first define both nephrotoxic and non-nephrotoxic treatments from short-term studies devoid of tissue injury that can be used to model the early transcriptional effects that will be predictive of late-onset toxicity.
# Doses were chosen that would not cause histological or clinical evidence of renal tubular injury after 5 days of dosing, but would cause histological evidence of tubular injury after 28 days of dosing.
# Male Sprague-Dawley (Crl:CD®(SD)(IGS)BR) rats (Charles River Laboratories, Portage, Mich.), weight matched, 7 to 8 weeks of age, were housed individually in hanging, stainless steel, wire-bottom cages in a temperature (66-77° F.), light (12-hour dark/light cycle) and humidity (30-70%) controlled room. […] Housing and treatment of the animals were in accordance with regulations outlined in the USDA Animal Welfare Act (9 CFR Parts 1, 2 and 3).
# All animals were monitored daily for clinical observations approximately 1 hr after dosing. […] Paired organs were weighed together. Body weights were recorded pre-test and daily thereafter for reference database (i.e., DrugMatrix™) studies, and on days 0, 3, 5, 7, 14 and 28 for the sub-chronic studies. Terminal body weights were measured at necropsy and used to calculate relative organ weights and percent body weight gain relative to day 0.
# The right kidney was preserved in 10% buffered formalin for tissue fixation and subsequently embedded in paraffin, sectioned and stained with hematoxylin and eosin. Sections (5 μm thick) were examined under light microscope by Board Certified Pathologists for histopathological lesions. The left kidney was snap frozen in liquid nitrogen for subsequent RNA extraction.
# [2] = system: renal tubules; settings: rats, daily dose, route and vehicle of Table 2, day 5/7; absence of nephrotoxicity asserted from PDR and published literature; no histological injury on day 5/7; cited from earlier work
# [3] = after 4 weeks of dosing, kidney histopathology
# [4] = male Sprague-Dawley rats, daily dose, route and vehicle of Table 2, late-onset renal tubular injury empirically confirmed after 28 days of dosing, expression profile day 5
# [5] = day 5, kidney histopathology, n=5
Compound,Class (nephrotoxic / non-nephrotoxic training label) [2],also measured
CC(=O)[O-].CC(=O)[O-].[Pb+2] [LEAD (II) ACETATE],,"incidence of karyomegaly [1, 3]: high incidence; mild tubular dilation and proteinaceous casts, animals affected ([1]; day 5, kidney histopathology): one; Class (nephrotoxic / non-nephrotoxic training label) [1, 4]: Nephrotoxic"
CCO [ETHANOL],Non-nephrotoxic,
CC12CCC(CC1)C(C)(C)O2 [EUCALYPTOL],Non-nephrotoxic,
CC(=O)[C@]1(O)Cc2c(O)c3c(c(O)c2[C@@H](O[C@H]2C[C@H](N)[C@H](O)[C@H](C)O2)C1)C(=O)c1ccccc1C3=O [IDARUBICIN],,"Class (nephrotoxic / non-nephrotoxic training label) [1, 4]: Nephrotoxic"
COc1cccc2c1C(=O)c1c(O)c3c(c(O)c1C2=O)C[C@@](O)(C(C)=O)C[C@@H]3O[C@H]1C[C@H](N)[C@H](O)[C@H](C)O1 [DAUNORUBICIN],,"Class (nephrotoxic / non-nephrotoxic training label) [1, 4]: Nephrotoxic"
Cn1cnc([N+](=O)[O-])c1Sc1ncnc2nc[nH]c12 [AZATHIOPRINE],Non-nephrotoxic,
CO[C@H]1/C=C/O[C@@]2(C)Oc3c(C)c(O)c4c(c3C2=O)C2=NC3(CCN(CC(C)C)CC3)NC2=C(NC(=O)/C(C)=C\C=C\[C@H](C)[C@H](O)[C@@H](C)[C@@H](O)[C@@H](C)[C@H](OC(C)=O)[C@@H]1C)C4=O [RIFABUTIN],Non-nephrotoxic,
[Cl][Cd][Cl] [CADMIUM CHLORIDE],,"Class (nephrotoxic / non-nephrotoxic training label) [1, 4]: Nephrotoxic"
CCN(CC)N=O [N-NITROSODIETHYLAMINE],Non-nephrotoxic,
CNC[C@H](O)[C@@H](O)[C@H](O)[C@H](O)CO.CNC[C@H](O)[C@@H](O)[C@H](O)[C@H](O)CO.O=C([O-])CN(CCN(CC(=O)[O-])CC(=O)O)CCN(CC(=O)[O-])CC(=O)O.[Gd+3] [GADOPENTETATE DIMEGLUMINE],Non-nephrotoxic,
Cc1cc(CC(=O)O)n(C)c1C(=O)c1ccc(Cl)cc1 [ZOMEPIRAC],Non-nephrotoxic,
"CN(C)C=O [N,N-DIMETHYLFORMAMIDE]",Non-nephrotoxic,
CCOC(=O)[C@H](CCc1ccccc1)N[C@@H](C)C(=O)N1[C@H](C(=O)O)C[C@@H]2CCC[C@@H]21,Non-nephrotoxic,
CCCCCCCCCc1ccc(O)cc1 [4-NONYLPHENOL],,"evidence of tubular injury [1]: clear evidence of tubular injury; incidence of interstitial inflammation [1]: 6 rats; proteinaceous casts, tubular cysts and mineralization, animals affected [1]: one; Class (nephrotoxic / non-nephrotoxic training label) ([1]; rat, in vivo): Nephrotoxic"
Cc1oncc1C(=O)Nc1ccc(C(F)(F)F)cc1 [LEFLUNOMIDE],Non-nephrotoxic,
CC[C@H](C)C(=O)O[C@H]1C[C@@H](C)C=C2C=C[C@H](C)[C@H](CC[C@@H]3C[C@@H](O)CC(=O)O3)[C@H]21 [LOVASTATIN],Non-nephrotoxic,
GENTAMICIN,,"Class (nephrotoxic / non-nephrotoxic training label) [1, 4]: Nephrotoxic"
CS(=O)(=O)c1ccc([C@@H](O)[C@@H](CO)NC(=O)C(Cl)Cl)cc1 [THIAMPHENICOL],Non-nephrotoxic,
Oc1c(Cl)cc(Cl)cc1Sc1cc(Cl)cc(Cl)c1O [BITHIONOL],Non-nephrotoxic,
COc1cccc2c1C(=O)c1c(O)c3c(c(O)c1C2=O)C[C@@](O)(C(=O)CO)C[C@@H]3O[C@H]1C[C@H](N)[C@H](O)[C@H](C)O1 [DOXORUBICIN],,"Class (nephrotoxic / non-nephrotoxic training label) [1, 4]: Nephrotoxic"
CCOC(=O)C(C)(C)Oc1ccc(Cl)cc1 [CLOFIBRATE],Non-nephrotoxic,
CC(c1cc2ccccc2s1)N(O)C(N)=O (centres unmarked) [ZILEUTON],Non-nephrotoxic,
NCC(=O)O [GLYCINE],Non-nephrotoxic,
CC(=O)Oc1ccccc1C(=O)O [ASPIRIN],Non-nephrotoxic,
Cc1ccc(-c2cc(C(F)(F)F)nn2-c2ccc(S(N)(=O)=O)cc2)cc1 [CELECOXIB],Non-nephrotoxic,

Compound,Class (nephrotoxic / non-nephrotoxic training label) [2],also measured
O=[N+]([O-])c1cc([As](=O)(O)O)ccc1O [ROXARSONE],,"evidence of tubular injury [1]: clear evidence of tubular injury; incidence of interstitial inflammation [1]: 6 rats; proteinaceous casts, tubular cysts and mineralization, animals affected [1]: one; Class (nephrotoxic / non-nephrotoxic training label) [1, 4]: Nephrotoxic"
CCN[C@@H]1C[C@H](N)[C@@H](O[C@H]2OC(CN)=CC[C@H]2N)[C@H](O)[C@H]1O[C@H]1OC[C@](C)(O)[C@H](NC)[C@H]1O [NETILMICIN],,"Class (nephrotoxic / non-nephrotoxic training label) [1, 4]: Nephrotoxic"
CC(C)(c1ccc(O)cc1)c1ccc(O)cc1 [BISPHENOL A],Non-nephrotoxic,
CC(C)OC(=O)C(C)(C)Oc1ccc(C(=O)c2ccc(Cl)cc2)cc1 [FENOFIBRATE],Non-nephrotoxic,
Cc1ccc(C)c(OCCCC(C)(C)C(=O)O)c1 [GEMFIBROZIL],Non-nephrotoxic,
CC(C)CN(C[C@@H](O)[C@H](Cc1ccccc1)NC(=O)O[C@H]1CCOC1)S(=O)(=O)c1ccc(N)cc1,Non-nephrotoxic,
Cc1ccc(S(=O)(=O)NC(=O)NN2CC3CCCC3C2)cc1 (centres unmarked) [GLICLAZIDE],Non-nephrotoxic,
N.N.[Cl][Pt+2][Cl] [TRANSPLATIN],Non-nephrotoxic,
N.N.[Cl][Pt][Cl] [CISPLATIN],,"incidence of karyomegaly [1, 3]: high incidence; incidence of karyomegaly [1, 5]: 3 rats"
CCOc1nc2cccc(C(=O)O)c2n1Cc1ccc(-c2ccccc2-c2nnn[nH]2)cc1,Non-nephrotoxic,
[Cl-].[Cl-].[Co+2] [COBALT (II) CHLORIDE],,"incidence of karyomegaly [1, 3]: high incidence; Class (nephrotoxic / non-nephrotoxic training label) [1, 4]: Nephrotoxic"
CCCC(CCC)C(=O)O [VALPROIC ACID],Non-nephrotoxic,
CO[C@H]1C[C@@H]2CC[C@@H](C)[C@@](O)(O2)C(=O)C(=O)N2CCCC[C@H]2C(=O)O[C@H]([C@H](C)C[C@@H]2CC[C@@H](O)[C@H](OC)C2)CC(=O)[C@H](C)/C=C(\C)[C@@H](O)[C@@H](OC)C(=O)[C@H](C)C[C@H](C)/C=C/C=C/C=C/1C [RAPAMYCIN],Non-nephrotoxic,
COc1ccc2cc(CC(=O)O)ccc2c1,Non-nephrotoxic,
N.N.O=C([O-])C1(C(=O)[O-])CCC1.[Pt+2] [CARBOPLATIN],,"incidence of karyomegaly [1, 3]: high incidence; incidence of karyomegaly [1, 5]: 5 rats; Class (nephrotoxic / non-nephrotoxic training label) [1, 4]: Nephrotoxic"
CC(C)n1c(/C=C/C(O)CC(O)CC(=O)O)c(-c2ccc(F)cc2)c2ccccc21 (centres unmarked) [FLUVASTATIN],Non-nephrotoxic,
CC(C)[C@H](N)C(=O)OCCOCn1cnc2c(=O)[nH]c(N)nc21 [VALACYCLOVIR],Non-nephrotoxic,
NC(=O)N1C(=O)/C(=C(\O)c2cccs2)c2cc(Cl)ccc21 [TENIDAP],Non-nephrotoxic,
CCC[C@@H]1C[C@@H](C(=O)N[C@@H]([C@H]2O[C@H](SC)[C@H](O)[C@@H](O)[C@H]2O)[C@@H](C)O)N(C)C1 [LINCOMYCIN],Non-nephrotoxic,
C[C@H]1O[C@H](O[C@H]2[C@H](O)[C@@H](O)[C@@H](O[C@H]3[C@H](O)[C@@H](O)C(O)O[C@@H]3CO)O[C@@H]2CO)[C@H](O)[C@@H](O)[C@@H]1N[C@H]1C=C(CO)[C@@H](O)[C@H](O)[C@H]1O (some centres unmarked) [ACARBOSE],Non-nephrotoxic,
NC[C@H]1O[C@H](O[C@H]2[C@H](O)[C@@H](O[C@H]3O[C@H](CO)[C@@H](O)[C@H](N)[C@H]3O)[C@H](N)C[C@@H]2N)[C@H](N)C[C@@H]1O [TOBRAMYCIN],,"Class (nephrotoxic / non-nephrotoxic training label) [1, 4]: Nephrotoxic"
NCC[C@H](O)C(=O)N[C@@H]1C[C@H](N)[C@@H](O[C@H]2O[C@H](CN)[C@@H](O)[C@H](O)[C@H]2O)[C@H](O)[C@H]1O[C@H]1O[C@H](CO)[C@@H](O)[C@H](N)[C@H]1O [AMIKACIN],,"Class (nephrotoxic / non-nephrotoxic training label) [1, 4]: Nephrotoxic"
CNCCc1ccccn1 [BETAHISTINE],Non-nephrotoxic,
O=C1C(CC[S+]([O-])c2ccccc2)C(=O)N(c2ccccc2)N1c1ccccc1 (centres unmarked) [SULFINPYRAZONE],Non-nephrotoxic,
C[C@H](CS)C(=O)N1CCC[C@H]1C(=O)O [CAPTOPRIL],Non-nephrotoxic,
